Laboratory results reported in PubChem BioAssay (NCI).
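Five concentrations, 48 hours, 96-well plates. TGI denotes the concentration required for complete inhibition of growth.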

Columns and labels:
Assay in all cases: DTP human tumour cell line panel, 48 h
[1] = tested on: 786-0 renal
[2] = tested on: A498 renal
[3] = tested on: A549 NSCLC
[4] = tested on: ACHN renal
[5] = tested on: CAKI-1 renal
[6] = tested on: CCRF-CEM leukemia
[7] = tested on: COLO 205 colon
[8] = tested on: DLD-1 colon
[9] = tested on: DMS 114 small cell lung
[10] = tested on: DMS 273 small cell lung
[11] = tested on: EKVX NSCLC
[12] = tested on: HCC-2998 colon
[13] = tested on: HCT-116 colon
[14] = tested on: HCT-15 colon
[15] = tested on: HL-60(TB) leukemia
[16] = tested on: HOP-18 NSCLC
[17] = tested on: HOP-62 NSCLC
[18] = tested on: HOP-92 NSCLC
[19] = tested on: HT29 colon
[20] = tested on: IGROV1 ovarian
[21] = tested on: K-562 leukemia
[22] = tested on: KM12 colon
[23] = tested on: KM20L2 colon
[24] = tested on: LOX IMVI melanoma
[25] = tested on: LXFL 529 NSCLC
[26] = tested on: M14 melanoma
[27] = tested on: M19-MEL melanoma
[28] = tested on: MALME-3M melanoma
[29] = tested on: MOLT-4 leukemia
[30] = tested on: NCI-H23 lung
[31] = tested on: NCI-H460 lung
[32] = tested on: NCI-H522 lung
[33] = tested on: OVCAR-3 ovarian
[34] = tested on: OVCAR-4 ovarian
[35] = tested on: OVCAR-5 ovarian
[36] = tested on: OVCAR-8 ovarian
[37] = tested on: RPMI-8226 leukemia
[38] = tested on: RXF 393 renal
[39] = tested on: RXF-631 renal
[40] = tested on: SF-268 CNS
[41] = tested on: SF-295 CNS
[42] = tested on: SF-539 CNS
[43] = tested on: SK-MEL-2 melanoma
[44] = tested on: SK-MEL-28 melanoma
[45] = tested on: SK-MEL-5 melanoma
[46] = tested on: SK-OV-3 ovarian
[47] = tested on: SN12C renal
[48] = tested on: SNB-19 CNS
[49] = tested on: SNB-75 CNS
[50] = tested on: SNB-78 CNS
[51] = tested on: SW-620 colon
[52] = tested on: TK-10 renal
[53] = tested on: U251 CNS
[54] = tested on: UACC-257 melanoma
[55] = tested on: UACC-62 melanoma
[56] = tested on: UO-31 renal
[57] = tested on: XF 498 CNS
[58] = tested on: NCI-H226 lung
[59] = tested on: SR leukemia

Compound: CC1=C(C(=O)CC(=O)C(=O)Nc2ccc(Cl)cc2C)Sc2ccccc2N1
- TGI [1]: > 100 µM
- TGI [2]: > 100 µM
- TGI [3]: > 100 µM
- TGI [4]: > 100 µM
- TGI [5]: > 100 µM
- TGI [6]: > 100 µM
- TGI [7]: > 100 µM
- TGI [8]: > 100 µM
- TGI [9]: > 100 µM
- TGI [10]: > 100 µM
- TGI [11]: > 100 µM
- TGI [12]: > 100 µM
- TGI [13]: > 100 µM
- TGI [14]: > 100 µM
- TGI [15]: > 100 µM
- TGI [16]: > 100 µM
- TGI [17]: > 100 µM
- TGI [18]: 74.7 µM
- TGI [19]: > 100 µM
- TGI [20]: > 100 µM
- TGI [21]: > 100 µM
- TGI [22]: > 100 µM
- TGI [23]: > 100 µM
- TGI [24]: > 100 µM
- TGI [25]: > 100 µM
- TGI [26]: > 100 µM
- TGI [27]: > 100 µM
- TGI [28]: > 100 µM
- TGI [29]: > 77.1 µM
- TGI [30]: > 100 µM
- TGI [31]: > 100 µM
- TGI [32]: > 100 µM
- TGI [33]: > 100 µM
- TGI [34]: > 100 µM
- TGI [35]: > 100 µM
- TGI [36]: > 100 µM
- TGI [37]: > 100 µM
- TGI [38]: > 100 µM
- TGI [39]: > 100 µM
- TGI [40]: > 100 µM
- TGI [41]: > 100 µM
- TGI [42]: > 100 µM
- TGI [43]: > 100 µM
- TGI [44]: > 100 µM
- TGI [45]: > 100 µM
- TGI [46]: > 100 µM
- TGI [47]: > 100 µM
- TGI [48]: > 100 µM
- TGI [49]: > 100 µM
- TGI [50]: > 100 µM
- TGI [51]: > 100 µM
- TGI [52]: > 100 µM
- TGI [53]: > 100 µM
- TGI [54]: > 100 µM
- TGI [55]: > 100 µM
- TGI [56]: > 100 µM
- TGI [57]: > 100 µM

Compound: O=[N+]([O-])c1nccn1COCCO
- TGI [1]: > 100 µM
- TGI [2]: > 100 µM
- TGI [3]: > 100 µM
- TGI [4]: > 100 µM
- TGI [5]: > 100 µM
- TGI [6]: > 100 µM
- TGI [7]: > 100 µM
- TGI [8]: > 100 µM
- TGI [9]: > 100 µM
- TGI [10]: > 100 µM
- TGI [12]: > 100 µM
- TGI [13]: > 100 µM
- TGI [14]: > 100 µM
- TGI [15]: > 100 µM
- TGI [16]: 97.8 µM
- TGI [17]: > 100 µM
- TGI [18]: > 100 µM
- TGI [19]: > 100 µM
- TGI [22]: > 100 µM
- TGI [23]: > 100 µM
- TGI [24]: > 100 µM
- TGI [25]: > 100 µM
- TGI [26]: > 100 µM
- TGI [28]: > 100 µM
- TGI [29]: > 100 µM
- TGI [58]: > 100 µM
- TGI [30]: > 100 µM
- TGI [31]: > 100 µM
- TGI [32]: > 100 µM
- TGI [34]: > 100 µM
- TGI [35]: > 100 µM
- TGI [37]: > 100 µM
- TGI [38]: > 100 µM
- TGI [39]: > 100 µM
- TGI [40]: > 100 µM
- TGI [41]: > 100 µM
- TGI [43]: > 100 µM
- TGI [44]: > 100 µM
- TGI [45]: > 100 µM
- TGI [46]: > 100 µM
- TGI [47]: > 100 µM
- TGI [48]: > 100 µM
- TGI [49]: > 100 µM
- TGI [50]: > 100 µM
- TGI [59]: > 100 µM
- TGI [51]: > 100 µM
- TGI [52]: > 100 µM
- TGI [53]: > 100 µM
- TGI [54]: > 100 µM
- TGI [57]: > 100 µM

Compound: O=C(CN1CCN(c2cccc(Cl)c2)CC1)N1CCc2c([nH]c3ccccc23)C1c1cccnc1 (stereo unspecified)
- TGI [1]: 44.3 µM
- TGI [2]: 67.9 µM
- TGI [3]: > 100 µM
- TGI [4]: > 100 µM
- TGI [5]: 54.7 µM
- TGI [6]: 17.8 µM
- TGI [8]: > 100 µM
- TGI [9]: 39.4 µM
- TGI [10]: 84.5 µM
- TGI [11]: 94.1 µM
- TGI [12]: 21.6 µM
- TGI [13]: 17 µM
- TGI [14]: > 100 µM
- TGI [16]: 97.8 µM
- TGI [17]: 63.9 µM
- TGI [18]: 42 µM
- TGI [19]: 15.9 µM
- TGI [20]: > 100 µM
- TGI [21]: 17.8 µM
- TGI [22]: 20.2 µM
- TGI [23]: 11.7 µM
- TGI [26]: 19.4 µM
- TGI [27]: 68.6 µM
- TGI [29]: 6.94 µM
- TGI [30]: 50.3 µM
- TGI [31]: 33.1 µM
- TGI [32]: 48.6 µM
- TGI [33]: 42.2 µM
- TGI [34]: 75.7 µM
- TGI [35]: 45.2 µM
- TGI [36]: > 100 µM
- TGI [37]: 5.26 µM
- TGI [38]: 14.8 µM
- TGI [39]: 40.4 µM
- TGI [40]: > 100 µM
- TGI [41]: 50.8 µM
- TGI [42]: 42.3 µM
- TGI [44]: > 100 µM
- TGI [45]: 32.6 µM
- TGI [46]: > 100 µM
- TGI [47]: > 100 µM
- TGI [48]: > 100 µM
- TGI [49]: 26.6 µM
- TGI [50]: > 100 µM
- TGI [59]: 7.19 µM
- TGI [51]: 52 µM
- TGI [52]: > 100 µM
- TGI [53]: 48.8 µM
- TGI [54]: 35.4 µM
- TGI [55]: 39.3 µM
- TGI [56]: 57.7 µM
- TGI [57]: 35.9 µM

Compound: CSc1cc(-c2cc3ccccc3o2)oc(=O)c1C#N
- TGI [2]: > 100 µM
- TGI [3]: > 100 µM
- TGI [4]: > 100 µM
- TGI [5]: > 100 µM
- TGI [6]: > 100 µM
- TGI [7]: > 100 µM
- TGI [8]: > 100 µM
- TGI [9]: > 100 µM
- TGI [10]: > 100 µM
- TGI [11]: > 100 µM
- TGI [12]: > 100 µM
- TGI [13]: > 100 µM
- TGI [14]: > 100 µM
- TGI [15]: > 100 µM
- TGI [16]: > 100 µM
- TGI [18]: 2.33 µM
- TGI [19]: > 100 µM
- TGI [20]: > 100 µM
- TGI [21]: > 100 µM
- TGI [22]: > 100 µM
- TGI [23]: > 100 µM
- TGI [24]: > 100 µM
- TGI [25]: > 100 µM
- TGI [26]: > 100 µM
- TGI [28]: > 100 µM
- TGI [29]: > 100 µM
- TGI [58]: 4.31 µM
- TGI [30]: > 100 µM
- TGI [31]: > 100 µM
- TGI [34]: > 100 µM
- TGI [35]: > 100 µM
- TGI [36]: > 100 µM
- TGI [37]: > 100 µM
- TGI [38]: > 100 µM
- TGI [39]: > 100 µM
- TGI [40]: > 100 µM
- TGI [41]: > 100 µM
- TGI [42]: > 100 µM
- TGI [43]: > 100 µM
- TGI [44]: > 100 µM
- TGI [45]: > 100 µM
- TGI [47]: > 100 µM
- TGI [48]: > 100 µM
- TGI [49]: > 100 µM
- TGI [50]: > 100 µM
- TGI [59]: 50 µM
- TGI [51]: > 100 µM
- TGI [52]: 73.4 µM
- TGI [53]: > 100 µM
- TGI [54]: > 100 µM
- TGI [56]: > 100 µM
- TGI [57]: > 100 µM
